Experimental data published in PubChem BioAssay (NCI).
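Where inhibition never reached the appropriate level, the endpoint shown equals the highest concentration tested. Otherwise, values were interpolated linearly from a five-concentration, 48-hour dose response in 96-well plates. GI50 marks 50% less growth. TGI denotes the concentration required for complete inhibition of growth.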

Legend:
Experiment in all cases: inhibition of tumour cell growth, NCI panel, 48 h
ACHN renal = tested on: ACHN renal
COLO 205 colon = tested on: COLO 205 colon
HCC-2998 colon = tested on: HCC-2998 colon
HCT-116 colon = tested on: HCT-116 colon
HOP-92 NSCLC = tested on: HOP-92 NSCLC
HT29 colon = tested on: HT29 colon
NCI-H460 lung = tested on: NCI-H460 lung
OVCAR-3 ovarian = tested on: OVCAR-3 ovarian
SK-MEL-5 melanoma = tested on: SK-MEL-5 melanoma
SK-OV-3 ovarian = tested on: SK-OV-3 ovarian
SNB-19 CNS = tested on: SNB-19 CNS
U251 CNS = tested on: U251 CNS
OVCAR-5 ovarian = tested on: OVCAR-5 ovarian
SK-MEL-2 melanoma = tested on: SK-MEL-2 melanoma
M14 melanoma = tested on: M14 melanoma

SMILES | TGI (ACHN renal) [µM] | TGI (COLO 205 colon) [µM] | TGI (HCC-2998 colon) [µM] | TGI (HCT-116 colon) [µM] | TGI (HOP-92 NSCLC) [µM] | TGI (HT29 colon) [µM] | TGI (NCI-H460 lung) [µM] | TGI (OVCAR-3 ovarian) [µM] | TGI (SK-MEL-5 melanoma) [µM] | GI50 (SK-OV-3 ovarian) [µM] | TGI (SK-OV-3 ovarian) [µM] | GI50 (SNB-19 CNS) [µM] | TGI (SNB-19 CNS) [µM] | TGI (U251 CNS) [µM] | TGI (OVCAR-5 ovarian) [µM] | TGI (SK-MEL-2 melanoma) [µM] | TGI (M14 melanoma) [µM]
CCCCCC(=O)N[C@@H](c1ccco1)[C@@H](O)C(=O)O[C@H]1C[C@@]2(O)[C@@H](OC(=O)c3ccccc3)[C@@H]3[C@]4(OC(C)=O)CO[C@@H]4C[C@H](O)[C@@]3(C)C(=O)[C@H](OC(C)=O)C(=C1C)C2(C)C | > 25 | 0.00015 | > 25 | > 25 | > 25 | > 25 | > 25 | 0.000716 | 4.52 | 0.00163 | > 25 | 0.00055 | > 25 | > 25 | – | – | –
S=c1sc2c(s1)SC(c1ccccc1)CS2 (configuration not stated) | – | > 100 | > 100 | > 100 | > 100 | > 100 | > 100 | > 100 | > 100 | – | > 100 | – | > 100 | > 100 | > 100 | > 100 | –
Cc1ccc(/C=C2\Sc3scc(-c4ccccc4)[n+]3C2=O)cc1 | 51.7 | 52.4 | 75 | > 52.1 | > 49.7 | 56.9 | 42.4 | > 100 | > 58.2 | – | > 67.6 | – | > 72 | 47.5 | > 100 | > 89.1 | > 94.9
O=C(NN1C(=O)C(Cl)C1c1ccccc1O)c1ccccc1O (configuration not stated) | – | > 100 | – | > 100 | > 100 | > 100 | > 100 | > 100 | > 100 | – | > 100 | – | 57.9 | > 100 | – | > 100 | > 100
Brc1ccc(C2C3CSc4ccccc4C3=NN2c2ccccc2)cc1 (configuration not stated) | – | > 100 | – | > 100 | > 100 | > 100 | > 100 | > 100 | > 100 | – | > 100 | – | > 100 | > 100 | – | > 100 | > 100
Cc1c(O)c(=O)ccn1CCN | > 100 | > 100 | > 100 | > 100 | > 100 | > 100 | > 100 | – | – | – | > 100 | – | > 100 | > 100 | > 100 | > 100 | > 100
C[N+](C)(CCCCCC[N+](C)(C)CCCN1C(=O)c2cccc3cccc(c23)C1=O)CCCN1C(=O)c2cccc3cccc(c23)C1=O | > 100 | > 100 | – | > 100 | > 100 | > 100 | > 100 | > 100 | > 100 | – | > 100 | – | > 100 | > 100 | > 100 | > 100 | –
O=S(O)CCCCCSSc1ccccc1 | > 100 | – | > 100 | 70.2 | – | > 100 | > 100 | > 100 | – | – | > 100 | – | > 100 | 94.1 | > 100 | 53.3 | > 100
C/C(=C/C(=O)Nc1ccccc1)Nc1onc(C)c1C | – | > 100 | > 100 | > 100 | > 100 | > 100 | > 100 | > 100 | > 100 | – | > 100 | – | > 100 | > 100 | > 100 | > 100 | –
CC(CSC(=N)N)C(N)=O (configuration not stated) | > 100 | > 100 | > 100 | > 100 | > 100 | > 100 | > 100 | > 100 | > 100 | – | > 100 | – | > 100 | > 100 | > 100 | > 100 | > 100
